For one experiment, the target named is T1, Orexin receptor type 2 (Homo sapiens, UniProt O43614).
T1 sequence (O43614 whole entry): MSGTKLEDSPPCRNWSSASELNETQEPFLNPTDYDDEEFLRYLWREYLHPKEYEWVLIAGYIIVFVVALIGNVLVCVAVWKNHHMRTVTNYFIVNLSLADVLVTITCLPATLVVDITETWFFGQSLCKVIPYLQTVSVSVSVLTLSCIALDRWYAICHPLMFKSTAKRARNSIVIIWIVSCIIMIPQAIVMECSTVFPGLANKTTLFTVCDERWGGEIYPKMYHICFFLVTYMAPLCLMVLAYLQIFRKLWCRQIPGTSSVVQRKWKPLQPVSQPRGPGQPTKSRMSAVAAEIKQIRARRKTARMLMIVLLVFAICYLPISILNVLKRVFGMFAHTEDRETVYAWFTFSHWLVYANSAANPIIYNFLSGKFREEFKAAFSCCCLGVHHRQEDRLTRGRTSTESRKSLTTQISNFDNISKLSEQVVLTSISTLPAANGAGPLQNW
Briefly: Agonist activity at OX2R (unknown origin) expressed in CHO cells by cell-based calcium assay. The class given is functional.

Experiment [1] concerns the target T2, Orexin/Hypocretin receptor type 1 (Homo sapiens) (UniProt O43613).
T2 sequence (whole entry): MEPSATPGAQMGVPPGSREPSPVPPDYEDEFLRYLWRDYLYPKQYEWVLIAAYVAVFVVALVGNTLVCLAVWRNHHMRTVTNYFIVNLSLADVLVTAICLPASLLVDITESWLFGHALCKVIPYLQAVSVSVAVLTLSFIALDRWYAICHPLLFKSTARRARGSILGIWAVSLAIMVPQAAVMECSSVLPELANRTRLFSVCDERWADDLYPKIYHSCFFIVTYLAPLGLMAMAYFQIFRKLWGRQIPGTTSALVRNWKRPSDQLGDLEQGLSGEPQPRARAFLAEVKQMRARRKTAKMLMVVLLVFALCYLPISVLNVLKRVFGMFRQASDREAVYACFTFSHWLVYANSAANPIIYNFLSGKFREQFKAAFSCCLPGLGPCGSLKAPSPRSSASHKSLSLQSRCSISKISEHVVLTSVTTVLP
Briefly: Agonist activity at OX1R (unknown origin) expressed in CHO cells at 10 uM by cell-based calcium assay relative to Orexin A. The class given is functional.

The target of experiment [2] is T3, Orexin receptor type 2 (Homo sapiens) (UniProt O43614).
T3 sequence (whole entry): T1 sequence (O43614 whole entry)
Nature of the experiment: Agonist activity at OX2R (unknown origin) expressed in CHO cells at 10 uM by cell-based calcium assay relative to orexin A. The class given is functional.

Experiment [3] addresses T4, Orexin/Hypocretin receptor type 1 (Homo sapiens, UniProt O43613).
T4 sequence (O43613 whole entry): T2 sequence (whole entry)
Nature of the experiment: Agonist activity at OX1R (unknown origin) expressed in CHO cells by cell-based calcium assay. The class given is functional.

The species entered for the next experiment is Homo sapiens. Nature of the experiment: Selectivity ratio of EC50 for agonist activity at human OX1R expressed in CHO-K1 cells to EC50 for agonist activity at human OX2R expressed in CHO-K1 cells. The class given is cell-based.
The target of experiment [4] is T4, Orexin/Hypocretin receptor type 1. Nature of the experiment: Antagonist activity at human OX1R expressed in CHO-K1 cells assessed as inhibition of orexin-A-induced increase in calcium mobilization preincubated for 15 mins followed orexin-A stimulation by Fura-2-AM dye based fluorescence assay.

Molecules are shown by their SMILES. pEC50, pKi: −log10 of the molar value. Some results are limits rather than exact numbers.

Consider `COc1ccc(-c2cccc(C(=O)N(C)C)c2)cc1S(=O)(=O)Nc1ccc2ccc(N(C)C(=O)c3ccccc3)cc2c1`, for which the pEC50 (on Orexin receptor type 2; in experiment [3]) was less than 5.00 throughout. Further, the Efficacy in experiment [1] and in experiment [2] was less than 5% throughout.

Regarding `COC(=O)N1CCC[C@H](NS(C)(=O)=O)[C@@H]1CO[C@H]1CC[C@@H](c2ccccc2)CC1`, in the experiment filed under Homo sapiens, the Ratio EC50 is more than 5000.

With `COc1ccc(C(=O)Nc2cccc([C@]3(C)O[C@@H]4CO[C@H]5N4[C@@H]3O[C@@]5(C)c3cccc(NC(=O)c4ccc(OC)cc4)c3)c2)cc1`, in experiment [4], the pKi was 8.28.

Turning to `COc1ccccc1C(=O)N(C)c1cccc2ccc(NS(=O)(=O)c3cc(-c4cccc(C(=O)N(C)C)c4)ccc3OC)cc12`, the pEC50 (at Orexin receptor type 2; in experiment [3]) was less than 5.00 each time.

In the case of `COc1ccc(-c2cccc(C(=O)N(C)C)c2)cc1S(=O)(=O)Nc1ccc2ccc(NC(=O)c3ccccc3)cc2c1`, the pEC50 (on Orexin receptor type 2; in experiment [3]) was less than 5.00 throughout. In addition, the Efficacy in experiment [1] and in experiment [2] was less than 5% each time.

Turning to `COc1ccc(C(=O)Nc2cccc([C@]3(C)O[C@H]4CO[C@@H]5N4[C@H]3O[C@@]5(C)c3cccc(NC(=O)c4ccc(OC)cc4)c3)c2)cc1`, the pKi in experiment [4] was 8.66.

Values taken from ChEMBL document CHEMBL5131434, “Design and synthesis of novel orexin 2 receptor agonists based on naphthalene skeleton” (Bioorg Med Chem Lett, 2022).
